Measurements from article PMC12608622, “Novel Ruthenacarborane–NSAID Conjugates” (Molecules, 2025).

Legend:
Test in all cases: fluorescence-based COX inhibitor assay kit
Assay type in all cases: biochemical
COX-2 [1] = molecular target: T1, COX-2 (Homo sapiens, UniProt P35354); conditions: […] compound
T1 construct: gene PTGS2; construct not described
T1 sequence (P35354 18-604): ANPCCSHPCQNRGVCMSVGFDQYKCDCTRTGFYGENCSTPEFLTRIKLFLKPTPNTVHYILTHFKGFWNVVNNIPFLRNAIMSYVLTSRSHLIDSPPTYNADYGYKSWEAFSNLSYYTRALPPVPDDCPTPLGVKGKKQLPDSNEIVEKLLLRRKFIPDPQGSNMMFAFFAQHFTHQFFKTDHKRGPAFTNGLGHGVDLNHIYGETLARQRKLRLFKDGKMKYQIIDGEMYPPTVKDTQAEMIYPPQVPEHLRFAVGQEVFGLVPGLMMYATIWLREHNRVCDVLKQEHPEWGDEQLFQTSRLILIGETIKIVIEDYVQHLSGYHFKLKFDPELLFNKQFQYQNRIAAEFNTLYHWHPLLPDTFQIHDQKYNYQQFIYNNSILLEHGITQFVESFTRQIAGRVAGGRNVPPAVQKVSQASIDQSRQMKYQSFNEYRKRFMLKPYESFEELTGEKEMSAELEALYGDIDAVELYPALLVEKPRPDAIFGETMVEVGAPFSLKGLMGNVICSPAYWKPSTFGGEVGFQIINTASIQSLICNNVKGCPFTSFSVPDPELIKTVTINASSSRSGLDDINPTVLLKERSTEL

COX-1 = molecular target: T2, COX-1 (Ovis aries, UniProt P05979); conditions: […] compound
T2 construct: gene PTGS1; construct not described
T2 sequence (P05979 25-600): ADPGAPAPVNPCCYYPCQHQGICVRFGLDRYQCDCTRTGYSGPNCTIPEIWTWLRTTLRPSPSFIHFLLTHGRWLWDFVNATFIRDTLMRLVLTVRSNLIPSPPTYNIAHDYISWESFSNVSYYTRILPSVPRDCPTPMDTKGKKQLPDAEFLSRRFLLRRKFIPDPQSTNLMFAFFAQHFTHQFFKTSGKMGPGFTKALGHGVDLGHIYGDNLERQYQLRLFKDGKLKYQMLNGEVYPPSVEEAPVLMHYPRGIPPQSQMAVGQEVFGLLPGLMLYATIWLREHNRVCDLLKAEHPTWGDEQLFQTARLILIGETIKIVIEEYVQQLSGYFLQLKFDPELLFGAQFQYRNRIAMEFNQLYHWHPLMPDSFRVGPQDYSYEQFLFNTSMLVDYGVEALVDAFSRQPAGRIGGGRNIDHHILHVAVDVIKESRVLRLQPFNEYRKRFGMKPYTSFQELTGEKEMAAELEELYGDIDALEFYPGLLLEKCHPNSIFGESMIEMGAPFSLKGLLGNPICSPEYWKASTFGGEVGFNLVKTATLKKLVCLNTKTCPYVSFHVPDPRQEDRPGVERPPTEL
Text: fluorescence-based COX inhibitor assay kit on COX-1

COX-2 [2] = molecular target: T1, COX-2

| Substance | % Inhibition @ 100 μM / COX-1 (COX-1) | further results |
| --- | --- | --- |
| Cesium 1-(1′-hydroxymethyl)-nido-carborane [2a] |  | % Inhibition @ 100 μM / COX-2 (COX-2 [1]): 38% |
| Cesium 1-(2′-hydroxyethyl)-nido-carborane [2b] |  | IC50 (COX-2 [2]): 84.1 µM |
| [Ru(η^6-p-cymene)-2-{ethyl (R/S)-2-[4-(2-fluorobiphenyl-4-yl)propanoic acid ester]-closo-C2B9H10}] [4b] | 40% |  |

More lines, main results first:

| % Inhibition @ 100 μM / COX-1 (COX-1) | Substance | further results |
| --- | --- | --- |
| 33% | [Ru(η^6-p-cymene)-1-{methyl (R/S)-2-[4-(2-fluorobiphenyl-4-yl)propanoic acid ester]-closo-C2B9H10}] [4a] |  |
| 30% | [Ru(η^6-p-cymene)-2-{ethyl (R/S)-2-[4-(2-propylphenyl)propanoic acid ester]-closo-C2B9H10}] [6b] |  |
